From US20130236568A1, “PHOSPHAPLATINS HAVING ANTI-ANGIOGENIC, ANTI-METASTATIC, AND PRO-APOPTOTIC PROPERTIES AND USES THEREOF” (Ohio University, priority 2011, published 2013)

Tests used:
[1] = tested on: yeast deletion collection; assay: Genome-wide fitness assay in yeast (pooled deletion strains); type: cell-based; details: for Sensitivity of DNA damage/repair genes (NER, HRR, PRR): phosphaplatins at 200 μM final concentration
Excerpt: The around 6000 strains in the yeast deletion collection can be studied in a single culture by using a microarray to detect the 20 bp DNA “barcodes” or “tags” contained in each strain. Barcode intensities are compared across time-points or across conditions to analyze the relative fitness of each strain. This development of the pooled fitness assay has greatly facilitated the functional annotation of the yeast genome by making genome-wide gene-deletion studies faster and easier, and has led to the development of high throughput methods for studying drug action in yeast. Pooled screens can be used for identifying gene functions, measuring the functional relatedness of gene pairs in order to group genes into pathways, identifying drug targets, and determining a drug's mechanism of action. This process involves five main steps: preparing aliquots of pooled cells, pooled growth, isolation of genomic DNA and PCR amplification of the barcodes, array hybridization (or next generation sequencing), and data analysis.
The pooled fitness assay involves five main steps (FIG. 3). First, the deletion collection is grown on solid media in arrayed format and the resulting cells are pooled and frozen to make cell aliquots that will be used for starting growth experiments. Cells are then grown in the desired conditions, typically for 5 to 20 generations. The barcodes from the resulting cell samples are prepared for hybridization by isolation of the genomic DNA and PCR amplification of the barcodes. The barcodes are amplified in two reactions to prevent crosstalk between the uptag and downtag primers. The resulting PCR products are then hybridized to tag arrays with one array needed per cell sample. Data is then analyzed to determine differences in strain representation between pairs of samples.
To analyze the genome wide effects of pyrodach-2 and -4, we screened 2 collections of strains, 1200 essential genes as heterozygote deletion mutants (reducing functional gene dose from 2 to 1) and 4800 non-essential genes as complete deletions (reducing functional gene dose from 2 to 0). Both compounds were screened at the highest dose possible (200 μM final concentration) to increase the likelihood of finding compound-specific sensitive strains.
Fitness profiling of pooled deletion strains involves […] main steps: • 1. Strains are first pooled at approximately equal abundance. • 2. The pool is grown competitively in the condition of choice and a control condition. If a gene is sensitive to the treatment condition, the strain carrying this deletion will grow more slowly and become under-represented relative to the control culture (purple strain). Resistant strains will grow faster and become over-represented (not shown). • 3. Genomic DNA is isolated from cells harvested at the end of pooled growth, and barcodes are amplified from the genomic DNA with universal primers. • 4. PCR products are then hybridized to an array that detects the tag sequences, giving tag intensities for the two samples. • 5. The treatment and control sample are then compared to determine the relative fitness of each strain. Note that only the purple strain is described as sensitive to the condition. While the red strain grows more slowly than the blue strain in the treatment, this growth difference in not of interest because it matches that seen in the control.

VEGFR2 gene [2] = assay: Quantitative real-time PCR, VEGFR2 gene expression in A2780/C30 cells; type: cell-based, human; details: A2780/C30 (cisplatin-resistant); positive = manifold increase, negative = relative decrease vs untreated cells; cisplatin 7 μM, pyrodach-4 180 μM
Method: (§1) Evaluations of selected gene expressions in Human Umbilical Vein Endothelial Cells (HUVEC) and Human Ovarian Cancer Cells by quantitative reverse transcriptase polymerase chain reaction (PCR)
(§2) Quantitative real-time PCR experiments were performed to estimate the expression of a selection of targeted genes. HUVEC cells (Lonza Walkersville, Frederick, Md.) were cultured on 0.1% gelatin-coated petri dishes by following standard protocols recommended by the vendor in a humidified incubator by maintaining 5% CO2 at 37° C. Human epithelial ovarian cancer cells (A2780) and cisplatin-resistant cells (A2780/C30) were cultured in RPMI 1640 with or without cisplatin (7 μM) and pyrodach-4 (180 μM) for 0, 3, 12 and 24 hours. […] HUVECs were treated with or without cisplatin (7 μM) or pyrodach-4 (90 or 180 μM) for various durations ranging from 1 hr. to 6 hrs.
(§3) Both treated and untreated cancer cells were maintained in RPMI 1640 medium with 10% fetal bovine serum, 2 μmol L-glutamine, 100 units/mL penicillin-streptomycin and 0.25 units/mL insulin solution, at 37° C. with 5% CO2. RNA was isolated from both the treated and untreated cells. […] The quantity and purity of RNA were determined by UV spectroscopy (NanoDrop 2000 Thermo Scientific, Wilmington, Del.). A minimum absorbance ratio index (ratio of the absorbance measured at 260 nm over that at 280 nm) of 1.9 was used as an acceptable purity. […] The target gene was labeled with a blue dye (FAM, absorbance: 494 nm, emission: 518 nm) while the reference gene was tagged with a green dye (VIC, absorbance: 538 nm, emission: 554 nm). The cDNA concentrations were selected such that the threshold cycle (Ct) values for the target genes were between 17 and 32, most sensitive for the fluorescence detection by ABI StepOnePlus™ instrument used for the measurements.
(§4) The threshold cycle number (Ct), the point at which the fluorescence of the qPCR reaction just exceeds the threshold fluorescence of the detection system, was determined. […]

VEGFR2 gene [3] = assay: Quantitative real-time PCR, VEGFR2 gene expression in A2780 cells; type: cell-based, human; details: A2780 (cisplatin-sensitive); positive = manifold increase, negative = relative decrease vs untreated cells; cisplatin 7 μM, pyrodach-4 180 μM
Method: as §1, §2, §3, §4

A2780/C30 cells = assay: Cell death detection assay with ELISA, A2780/C30 cells; type: cell-based, human; details: 7 μM cisplatin or 180 μM D4
Method: In these experiments, ovarian cancer cells were treated with pyrodach-4 in the presence and absence of inhibitors PFT-α (an inhibitor p53) and LY29400 (an inhibitor of PI3K).
The different treatment groups from left to right are: control, 7 μM cisplatin, Con+PFT-α, 180 μM D4, 180 μM D4+PFT-α, 180 μM D4+LY294002. Apoptosis was quantified using the Cell Death Detection ELISA from Roche.
A2780 and A2780/C30 cells were grown in monolayers, trypsinized and suspended in supplemented RPMI 1640 media as described in Example 5. All the treatments on the Fc/A2780 and Fc/A2780/C30 cell samples were carried out in triplicate. The ELISA was performed according to the manufacturer's instructions. Briefly, 50,000 cells were plated for each treatment and the cells were allowed to adhere for 4-6 hours. Cells were then either incubated with media alone (untreated sample) or with pyrodach-4 or cisplatin in the concentrations indicated above. DNA of the treated and untreated cells was assayed for nucleosomal DNA using the ELISA kit (purchased from Roche Diagnostics, Mannheim, Germany). The cells were lysed for 30 minutes using the lysis buffer. After centrifuging, 10% (v/v) supernanant was incubated with anti-histone-biotin and anti-DNA-peroxidase. After two hour incubation, the pellets were washed three times and incubated with the substrate solution. The absorbances were measured at 405 and 490 nm for each treatment type using SPECTRA Max M2 multichannel fluorescence plate reader (Molecular Devices, Sunnyvale, Calif.). The absorbances of the treated samples were normalized to the substrate solution.

[4] = yeast deletion strains, 200 μM final concentration

Structure (SMILES)	Tolerability by the yeast cell (few sensitive strains) ([1]; highest dose possible, 200 μM final concentration)	Compound-specific sensitive strain [1, 4]	Functions enriched among sensitive strains [1, 4]	Sensitivity of DNA damage/repair genes (NER, HRR, PRR) ([1]; yeast deletion strains)	Normalized expression of VEGFR2 gene (VEGFR2 gene [2])	Normalized expression of VEGFR2 gene (VEGFR2 gene [3])	Apoptotic cell death (ELISA absorbance) (A2780/C30 cells)
NC1CCCCC1N.O=P([O-])(O)OP(=O)([O-])O.[Pt+2] (racemic) [pyrodach-2, trans-(±)-1,2-cyclohexanediamine(pyrophosphato) platinum(II)]	well tolerated by the cell	induced sensitivity in the strain avo2	1) iron and copper transport and 2) metal-regulated transcription factors	not a single gene involved in DNA repair or other DNA metabolic processes showed any sensitivity as a mutant	–	–	–
N.N.[Cl][Pt][Cl] [Cisplatin, cisplatin, reference compound]	–	–	–	induced expression of those genes related to the DNA response	2.0	2.5	insignificant increase in absorbance
